Reference: patent US20260274839A1, “COMPOUND AND USE THEREOF IN TREATING HUMAN DIHYDROOROTATE DEHYDROGENASE (hDHODH)-MEDIATED DISEASES” (SICHUAN UNIVERSITY, priority 2023, published 2026)

Target: hDHODH (Homo sapiens, UniProt Q02127)
Assay: Determination of hDHODH enzymatic inhibitory activity
Format: biochemical
Settings: compound final concentration 1 μM; purified hDHODH 40 nM; absorbance 600 nm
Experimental: Determination of hDHODH Enzymatic Inhibitory Activity of Compounds
Assay buffer preparation: 100 mM HEPES buffer, 150 mM NaCl, 10% glycerol, and 0.1% Triton X-100 were mixed, adjusted to pH-8.0. A resulting mixture was diluted with Milli-Q water, and then stored at 4° C. A total volume of the enzyme activity detection system was 60 μL. The procedure was performed as follows: 1 μL of the small-molecule solution (with a final concentration of 1 μM) was added to a 96-well enzyme plate. 39 μL of a mixture containing the purified hDHODH protein (with a final concentration of 40 nM), 2,6-dichloroindophenol sodium salt (with a final concentration of 100 μM), coenzyme Q (CoQ, with a final concentration of 20 μM) were added thereto. The plate was protected from light and incubated at 37° C. with gentle shaking for 30 min. After the incubation was completed, 20 μL of dihydroorotate (DHO, with a final concentration of 200 μM) was added to each well. Absorbance was immediately measured using a microplate reader having the following procedure: kinetic assay: wavelength: 600 nm, total duration: 10 min, interval: every 20 s. Controls: negative control: Dimethyl sulfoxide (DMSO) (equal volume) without inhibitor; blank control: ultra-pure water (equal volume) without DHO substrate. All assays were conducted in triplicate. […]

hDHODH, sequence (Q02127 whole entry): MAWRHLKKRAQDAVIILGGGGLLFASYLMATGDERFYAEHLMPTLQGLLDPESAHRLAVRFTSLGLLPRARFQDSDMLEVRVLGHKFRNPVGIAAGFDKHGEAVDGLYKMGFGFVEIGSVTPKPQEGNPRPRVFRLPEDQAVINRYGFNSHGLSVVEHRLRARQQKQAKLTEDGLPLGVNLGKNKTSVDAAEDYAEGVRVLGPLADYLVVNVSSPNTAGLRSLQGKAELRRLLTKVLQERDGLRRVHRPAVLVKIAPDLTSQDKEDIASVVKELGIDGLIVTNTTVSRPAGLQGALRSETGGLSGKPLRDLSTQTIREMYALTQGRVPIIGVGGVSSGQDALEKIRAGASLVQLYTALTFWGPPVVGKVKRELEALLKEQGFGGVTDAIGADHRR

- inhibition at 1 µM: 48.3%
SMILES: Fc1ccccc1Cn1nc(-c2ccc(C3CC3)cn2)c2cccnc21 [Compound D11]
